{"source": "ChEMBL document CHEMBL5579834", "about": "(Eur J Med Chem, 2024)", "key": {"[1]": {"assay": "Cytotoxicity against HEK293T cells assessed as reduction in cell viability measured after 48 hrs by MTT assay", "type": "toxicity, cell-based, HEK-293T", "details": "human"}, "[2]": {"assay": "Half-life in rat whole blood at 500 ng/ml by LC-MS/MS analysis", "type": "ADME, tissue-based"}, "[3]": {"assay": "Drug uptake in human skin fibroblast lysosomes assessed as fold change in corrected total cell fluorescence at 50 uM measured after 2 hrs by LysoTracker Red DND-99 dye based laser scanning confocal microscopy relative to control", "type": "ADME, subcellular, Lysosome"}}}
{"smiles": "CN1CCN(CCCC(=O)O[C@H]2C(C)(C)[C@H]3CC[C@]2(C)C3)CC1", "values": [{"measurement": "CC50 at 48 h", "setting": "[1]", "result": "> 775", "unit": "µM"}]}
{"smiles": "CC1(C)[C@H]2CC[C@](C)(C2)[C@H]1OC(=O)CN1CCOCC1", "values": [{"measurement": "CC50 at 48 h", "setting": "[1]", "result": 291, "unit": "µM"}]}
{"smiles": "CN1CCN(CC(=O)O[C@H]2C(C)(C)[C@H]3CC[C@]2(C)C3)CC1", "values": [{"measurement": "CC50 at 48 h", "setting": "[1]", "result": 645, "unit": "µM"}]}
{"smiles": "CCN1CCN(CCC(=O)O[C@H]2C(C)(C)[C@H]3CC[C@]2(C)C3)CC1", "values": [{"measurement": "CC50 at 48 h", "setting": "[1]", "result": 356, "unit": "µM"}]}
{"smiles": "CC1(C)[C@H]2CC[C@](C)(C2)[C@H]1OC(=O)CCCN1CCCCC1", "values": [{"measurement": "CC50 at 48 h", "setting": "[1]", "result": 458, "unit": "µM"}]}
{"smiles": "CC1(C)[C@@H]2CC[C@@]1(C)[C@@H](OC(=O)CCN1CCCCC1)C2", "values": [{"measurement": "half-life at 500 ng/ml", "setting": "[2]", "result": 20, "unit": "min"}]}
{"smiles": "CN1CCN(CCC(=O)O[C@H]2C(C)(C)[C@H]3CC[C@]2(C)C3)CC1", "values": [{"measurement": "fold change (FC)", "setting": "[3]", "result": 0.33}, {"measurement": "CC50 at 48 h", "setting": "[1]", "result": 454, "unit": "µM"}]}
{"smiles": "C[C@@H]1[C@H]2C[C@@H](C[C@H]1OC(=O)CCN1CCN(c3ccccc3)CC1)C2(C)C", "values": [{"measurement": "CC50 at 48 h", "setting": "[1]", "result": 128, "unit": "µM"}]}
{"smiles": "C[C@@H]1[C@H]2C[C@@H](C[C@H]1OC(=O)CCCN1CCN(c3ccccc3)CC1)C2(C)C", "values": [{"measurement": "CC50 at 48 h", "setting": "[1]", "result": 67, "unit": "µM"}]}
{"smiles": "C[C@@H]1[C@H]2C[C@@H](C[C@H]1OC(=O)CCN1CCN(C)CC1)C2(C)C", "values": [{"measurement": "CC50 at 48 h", "setting": "[1]", "result": 318, "unit": "µM"}]}
{"smiles": "CCN1CCN(CCCC(=O)O[C@H]2C(C)(C)[C@H]3CC[C@]2(C)C3)CC1", "values": [{"measurement": "CC50 at 48 h", "setting": "[1]", "result": 404, "unit": "µM"}]}
{"smiles": "C[C@@H]1[C@H]2C[C@@H](C[C@H]1OC(=O)CN1CCN(C)CC1)C2(C)C", "values": [{"measurement": "CC50 at 48 h", "setting": "[1]", "result": 628, "unit": "µM"}]}
{"smiles": "C[C@@H]1[C@H]2C[C@@H](C[C@H]1OC(=O)CN1CCN(c3ccccc3)CC1)C2(C)C", "values": [{"measurement": "CC50 at 48 h", "setting": "[1]", "result": 59, "unit": "µM"}]}
{"smiles": "CC1CCN(CC(=O)O[C@H]2C(C)(C)[C@H]3CC[C@]2(C)C3)CC1", "values": [{"measurement": "CC50 at 48 h", "setting": "[1]", "result": 241, "unit": "µM"}]}
{"smiles": "CC1(C)[C@H]2CC[C@](C)(C2)[C@H]1OC(=O)CCCN1CCN(c2ccccc2)CC1", "values": [{"measurement": "CC50 at 48 h", "setting": "[1]", "result": 11, "unit": "µM"}]}
{"smiles": "CC1(C)[C@H]2CC[C@](C)(C2)[C@H]1OC(=O)CCN1CCN(c2ccccc2)CC1", "values": [{"measurement": "CC50 at 48 h", "setting": "[1]", "result": 21, "unit": "µM"}]}
{"smiles": "CCN1CCN(CC(=O)O[C@H]2C(C)(C)[C@H]3CC[C@]2(C)C3)CC1", "values": [{"measurement": "CC50 at 48 h", "setting": "[1]", "result": 907, "unit": "µM"}]}
{"smiles": "CC1(C)[C@H]2CC[C@](C)(C2)[C@H]1OC(=O)CN1CCCCC1", "values": [{"measurement": "fold change (FC)", "setting": "[3]", "result": 0.6}, {"measurement": "CC50 at 48 h", "setting": "[1]", "result": 229, "unit": "µM"}]}
{"smiles": "C[C@@H]1[C@H]2C[C@@H](C[C@H]1OC(=O)CCN1CCCCC1)C2(C)C", "values": [{"measurement": "fold change (FC)", "setting": "[3]", "result": 0.37}, {"measurement": "CC50 at 48 h", "setting": "[1]", "result": 334, "unit": "µM"}]}
{"smiles": "CC1CCN(CCC(=O)O[C@H]2C(C)(C)[C@H]3CC[C@]2(C)C3)CC1", "values": [{"measurement": "CC50 at 48 h", "setting": "[1]", "result": 188, "unit": "µM"}]}
{"smiles": "CC1(C)[C@H]2CC[C@](C)(C2)[C@H]1OC(=O)CCCN1CCOCC1", "values": [{"measurement": "fold change (FC)", "setting": "[3]", "result": 0.56}, {"measurement": "CC50 at 48 h", "setting": "[1]", "result": 261, "unit": "µM"}]}
{"smiles": "CC1(C)[C@H]2CC[C@](C)(C2)[C@H]1OC(=O)CCN1CCCCC1", "values": [{"measurement": "fold change (FC)", "setting": "[3]", "result": 0.3}, {"measurement": "CC50 at 48 h", "setting": "[1]", "result": 351, "unit": "µM"}]}
{"smiles": "CC1(C)[C@H]2CC[C@](C)(C2)[C@H]1OC(=O)CN1CCN(c2ccccc2)CC1", "values": [{"measurement": "CC50 at 48 h", "setting": "[1]", "result": 101, "unit": "µM"}]}
{"smiles": "C[C@@H]1[C@H]2C[C@@H](C[C@H]1OC(=O)CCCN1CCN(C)CC1)C2(C)C", "values": [{"measurement": "CC50 at 48 h", "setting": "[1]", "result": 164, "unit": "µM"}]}
{"smiles": "C[C@@H]1[C@H]2C[C@@H](C[C@H]1OC(=O)CN1CCOCC1)C2(C)C", "values": [{"measurement": "fold change (FC)", "setting": "[3]", "result": 0.56}, {"measurement": "CC50 at 48 h", "setting": "[1]", "result": 199, "unit": "µM"}]}
{"smiles": "C[C@@H]1[C@H]2C[C@@H](C[C@H]1OC(=O)CCCN1CCCCC1)C2(C)C", "values": [{"measurement": "CC50 at 48 h", "setting": "[1]", "result": 123, "unit": "µM"}]}
{"smiles": "C[C@@H]1[C@H]2C[C@@H](C[C@H]1OC(=O)CN1CCCCC1)C2(C)C", "values": [{"measurement": "fold change (FC)", "setting": "[3]", "result": 0.46}, {"measurement": "CC50 at 48 h", "setting": "[1]", "result": 314, "unit": "µM"}]}
{"smiles": "C[C@@H]1[C@H]2C[C@@H](C[C@H]1OC(=O)CCN1CCOCC1)C2(C)C", "values": [{"measurement": "fold change (FC)", "setting": "[3]", "result": 0.57}, {"measurement": "CC50 at 48 h", "setting": "[1]", "result": 281, "unit": "µM"}]}
{"smiles": "C[C@@H]1[C@H]2C[C@@H](C[C@H]1OC(=O)CCCN1CCOCC1)C2(C)C", "values": [{"measurement": "CC50 at 48 h", "setting": "[1]", "result": 116, "unit": "µM"}]}
{"smiles": "CC1(C)[C@H]2CC[C@](C)(C2)[C@H]1OC(=O)CCN1CCOCC1", "values": [{"measurement": "CC50 at 48 h", "setting": "[1]", "result": 318, "unit": "µM"}]}
{"smiles": "CC1CCN(CCCC(=O)O[C@H]2C(C)(C)[C@H]3CC[C@]2(C)C3)CC1", "values": [{"measurement": "CC50 at 48 h", "setting": "[1]", "result": 130, "unit": "µM"}]}
{"smiles": "CN(C)CCOc1ccc(/C(=C(/CCCl)c2ccccc2)c2ccccc2)cc1", "note": "[TOREMIFENE]", "values": [{"measurement": "CC50 at 48 h", "setting": "[1]", "result": 17, "unit": "µM"}]}
